Assays:
[1] = Reactivity of nitroxyl radical to hydroxyl radical (UV/H2O2, X-band ESR); assay type: physicochemical; conditions: nitroxyl radical 25 μM, H2O2 10 mM, UV 100 to 120 mW/cm^2, X-band ESR
Method: In order to examine reactivities of the following 3 types of TEMPO-based nitroxyl radical derivatives, in which substituents at position-2 and position-6 in one derivative are different from those in another derivative, to free radical:
[drawing 49] according to the method of Takeshita et al. (Biochimica et Biophysica Acta, 1573, 156-164 (2002)), the following procedure was carried out. Nitroxyl radical (25 μM) was mixed with H2O2 (10 mM), and thereafter a specific amount of the mixture was collected in a capillary and irradiated with UV (100 to 120 mW/cm^2) to generate OH radical. The reactivities thereof to the nitroxyl radical were examined using X-band ESR.

[2] = Reactivity of nitroxyl radical to ascorbic acid (decrease in ESR signal intensity over time); assay type: physicochemical; conditions: nitroxyl radical 10 to 50 μM, ascorbic acid 100 μM to 2 mM, X-band ESR
Method: It has been reported that nitroxyl radical also reacts with a reduction substance (Couet, W. R., Tetrahedron, 41(7), 1165-1172 (1985); Finkelstein, E., Biochimica et Biophysica Acta, 802, 90-98 (1984)). Therefore, the following procedure was carried out. After nitroxyl radical (10 to 50 μM) was mixed with ascorbic acid (100 μM to 2 mM), a specific amount of the mixture was collected in a capillary, and thereafter the measurement was started. Using X-band ESR, decrease in ESR signal intensity was observed over time, thereby examining the reactivity to ascorbic acid, which is a typical reduction substance in the living body.

melting point [°C]	Compound	reactivities to hydroxyl radical, rank order [1]	reactivities to ascorbic acid, rank order [2]	reactivity to ascorbic acid ([2]; FIG. 2)
55.4	CC(C)(C)C1CC(=O)CC(C(C)(C)C)N1 (stereo not shown)			
	[O]N1C2(CCOCC2)CC(=O)CC12CCOCC2 [Compound 3, 2,6-dispiro-1′,1″-dipyran-piperidone-1-oxyl]	Compound 1>Compound 3>Compound 2	Compound 3>Compound 2>Compound 1	very rapidly reacts with ascorbic acid

From patent US8513417B2, “Method for synthesis of nitroxyl radical” (Kyushu University, National University Corporation, priority 2008, dated 2013)
